Reference: patent publication US12227520B2 (priority 2019, dated 2025)

Experiments:
[1] = Cytotoxicity assay in MT-4 cells; format: cell-based, human; details: human, uninfected MT-4 cells, 5 days incubation; read-out: CC50
Description: Each plate contained up to 8 test compounds, with negative (No Drug Control) and 5 μM AZT positive controls. MT-4 cells were pre-infected with 10 μL of either RPMI (mock-infected) or a fresh 1:250 dilution of HIV-1 IIIB concentrated virus stock. Infected and uninfected MT-4 cells were further diluted in complete RPMI media and added to each plate using a Micro Flow dispenser. After 5 days incubation in a humidified and temperature controlled incubator (37° C.), Cell Titer Glo (Promega) was added to the assay plates and chemiluminescence read using an Envision plate-reader. […] Assays were performed as above except uninfected MT-4 cells were added to each well containing test compound. In addition, 10 μM puromycin was added to the last column of each assay plate to assess a base level of cytotoxicity.

HIV-1 (IIIB) = test: Antiviral assay in MT-4 cells (HIV MT-4 antiviral assay); format: cell-based; details: Human immunodeficiency virus 1, IIIB, MT4, 120 h, HIV-1 (IIIB) in MT-4 cells, 5 days incubation; read-out: EC50
Description: Compounds were tested in a high-throughput 384-well assay format for their ability to inhibit the replication of HIV-1 (IIIB) in MT-4 cells. Compounds were serially diluted (1:3) in DMSO on 384-well polypropylene plates and further diluted 200-fold into complete RPMI media (10% FBS, 1% P/S) using the Biotek Micro Flow and Labcyte ECHO acoustic dispenser. Each plate contained up to 8 test compounds, with negative (No Drug Control) and 5 μM AZT positive controls. MT-4 cells were pre-infected with 10 μL of either RPMI (mock-infected) or a fresh 1:250 dilution of HIV-1 IIIB concentrated virus stock. Infected and uninfected MT-4 cells were further diluted in complete RPMI media and added to each plate using a Micro Flow dispenser. After 5 days incubation in a humidified and temperature controlled incubator (37° C.), Cell Titer Glo (Promega) was added to the assay plates and chemiluminescence read using an Envision plate-reader.

SMILES: CC(=O)N1CCN2CC(C1)n1cc(C(=O)NCc3ccc(F)cc3F)c(=O)c(O)c1C2=O (stereo not shown) [Example 31, 5-acetyl-N-(2,4-difluorobenzyl)-12-hydroxy-1,11-dioxo-1,4,5,6,7,11-hexahydro-3H-2,7-methanopyrido[1,2-a][1,4,7]triazonine-10-carboxamide]
- CC50 at 5 days [1]: > 50 µM
- EC50 (HIV-1 (IIIB)): > 0.1 µM

SMILES: CS(=O)(=O)N1CCN2CC(C1)n1cc(C(=O)NCc3ccc(F)cc3F)c(=O)c(O)c1C2=O (stereo not shown) [Example 32, N-(2,4-difluorobenzyl)-12-hydroxy-5-(methylsulfonyl)-1,11-dioxo-1,4,5,6,7,11-hexahydro-3H-2,7-methanopyrido[1,2-a][1,4,7]triazonine-10-carboxamide]
- CC50 at 5 days [1]: > 50 µM
- EC50 (HIV-1 (IIIB)): > 0.1 µM

SMILES: CN1CCN2CC(C1)n1cc(C(=O)NCc3ccc(F)cc3F)c(=O)c(O)c1C2=O (stereo not shown) [Example 33, N-(2,4-difluorobenzyl)-12-hydroxy-5-methyl-1,11-dioxo-1,4,5,6,7,11-hexahydro-3H-2,7-methanopyrido[1,2-a][1,4,7]triazonine-10-carboxamide]
- CC50 at 5 days [1]: > 50 µM
- EC50 (HIV-1 (IIIB)): 0.007 µM

SMILES: O=C(NCc1c(F)cc(F)cc1F)c1cn2c(c(O)c1=O)C(=O)N1C[C@H]2CCc2c(Cl)cccc21 [Example 45-2, (12R)-1-chloro-7-hydroxy-6,8-dioxo-N-(2,4,6-trifluorobenzyl)-6,8,13,14-tetrahydro-12H-5,12-methanobenzo[e]pyrido[1,2-a][1,4]diazonine-9-carboxamide]
- CC50 at 5 days [1]: 8.89 µM
- EC50 (HIV-1 (IIIB)): 0.0303 µM

SMILES: O=C(NCc1c(F)cc(F)cc1F)c1cn2c(c(O)c1=O)C(=O)N1C[C@@H]2CCc2cccc(F)c21 [Example 46-1, (12S)-4-fluoro-7-hydroxy-6,8-dioxo-N-(2,4,6-trifluorobenzyl)-6,8,13,14-tetrahydro-12H-5,12-methanobenzo[e]pyrido[1,2-a][1,4]diazonine-9-carboxamide]
- CC50 at 5 days [1]: 9.24 µM
- EC50 (HIV-1 (IIIB)): 0.0902 µM

SMILES: O=C(NCc1c(F)cc(F)cc1F)c1cn2c(c(O)c1=O)C(=O)N1C[C@@H]2CCc2cc(Cl)ccc21 [Example 48-1, (12S)-2-chloro-7-hydroxy-6,8-dioxo-N-(2,4,6-trifluorobenzyl)-6,8,13,14-tetrahydro-12H-5,12-methanobenzo[e]pyrido[1,2-a][1,4]diazonine-9-carboxamide]
- CC50 at 5 days [1]: > 13.8 µM
- EC50 (HIV-1 (IIIB)): > 0.034 µM

SMILES: O=C(NCc1ccc(F)cc1F)c1cn2c(c(O)c1=O)C(=O)N1C[C@@H]2CCc2cc(Cl)ccc21 [Example 49-1, (12S)-2-chloro-N-(2,4-difluorobenzyl)-7-hydroxy-6,8-dioxo-6,8,13,14-tetrahydro-12H-5,12-methanobenzo[e]pyrido[1,2-a][1,4]diazonine-9-carboxamide]
- CC50 at 5 days [1]: > 15.7 µM
- EC50 (HIV-1 (IIIB)): 0.0365 µM

SMILES: COc1cccc(CNC(=O)c2cn3c(c(O)c2=O)C(=O)N2CCCC[C@H]3C2)c1F [Example 54]
- CC50 at 5 days [1]: 1.46 µM
- EC50 (HIV-1 (IIIB)): 0.036 µM

SMILES: O=C(NCc1ccc(F)cc1F)c1cn2c(c(O)c1=O)C(=O)N1CCCC(O)(C(F)F)[C@H]2C1 (stereo partly drawn) [Example 76, (7R)—N-(2,4-difluorobenzyl)-6-(difluoromethyl)-6,12-dihydroxy-1,11-dioxo-1,4,5,6,7,11-hexahydro-3H-2,7-methanopyrido[1,2-a][1,4]diazonine-10-carboxamide]
- CC50 at 5 days [1]: 23.7 µM
- EC50 (HIV-1 (IIIB)): 0.00799 µM

SMILES: Cn1ncc2c1CC[C@H]1CN2C(=O)c2c(O)c(=O)c(C(=O)NCc3c(F)cc(F)cc3F)cn21 [Example 85-2, (11S)-6-hydroxy-1-methyl-5,7-dioxo-N-(2,4,6-trifluorobenzyl)-1,5,7,11,12,13-hexahydro-4,11-methanopyrazolo[4,3-e]pyrido[1,2-a][1,4]diazonine-8-carboxamide]
- CC50 at 5 days [1]: > 49.3 µM
- EC50 (HIV-1 (IIIB)): 0.00585 µM

SMILES: O=C(NCc1c(F)cc(F)cc1F)c1cn2c(c(O)c1=O)C(=O)N1C[C@H]2CCc2ccc(F)cc21 [Example 86-1, (12R)-3-fluoro-7-hydroxy-6,8-dioxo-N-(2,4,6-trifluorobenzyl)-6,8,13,14-tetrahydro-12H-5,12-methanobenzo[e]pyrido[1,2-a][1,4]diazonine-9-carboxamide]
- CC50 at 5 days [1]: > 30.3 µM
- EC50 (HIV-1 (IIIB)): 0.027 µM

SMILES: Cn1cc2c(n1)C[C@H]1CN(C2)C(=O)c2c(O)c(=O)c(C(=O)NCc3c(F)cc(F)cc3F)cn21 [Example 87-1, (12S)-7-hydroxy-2-methyl-6,8-dioxo-N-(2,4,6-trifluorobenzyl)-2,4,6,8,12,13-hexahydro-5,12-methanopyrazolo[4,3-f]pyrido[1,2-a][1,4]diazonine-9-carboxamide]
- CC50 at 5 days [1]: > 50 µM
- EC50 (HIV-1 (IIIB)): 0.00609 µM

SMILES: Cn1ncc2c1C[C@H]1CN(C2)C(=O)c2c(O)c(=O)c(C(=O)NCc3c(F)cc(F)cc3F)cn21 [Example 87-2, (12S)-7-hydroxy-1-methyl-6,8-dioxo-N-(2,4,6-trifluorobenzyl)-1,4,6,8,12,13-hexahydro-5,12-methanopyrazolo[4,3-f]pyrido[1,2-a][1,4]diazonine-9-carboxamide]
- CC50 at 5 days [1]: > 50 µM
- EC50 (HIV-1 (IIIB)): 0.00174 µM

SMILES: O=C(NCc1ccc(F)c(Cl)c1F)c1cn2c(c(O)c1=O)C(=O)N1C[C@H]2CCc2ccc(F)cc21 [Example 90-1, (12R)—N-(3-chloro-2,4-difluorobenzyl)-3-fluoro-7-hydroxy-6,8-dioxo-6,8,13,14-tetrahydro-12H-5,12-methanobenzo[e]pyrido[1,2-a][1,4]diazonine-9-carboxamide]
- CC50 at 5 days [1]: > 32.6 µM
- EC50 (HIV-1 (IIIB)): 0.0241 µM

SMILES: CO[C@H]1CC[C@H]2CN(C1)C(=O)c1c(O)c(=O)c(C(=O)NCc3c(F)cc(F)cc3F)cn12 [Example 91, (4S,7S)-12-hydroxy-4-methoxy-1,11-dioxo-N-(2,4,6-trifluorobenzyl)-1,4,5,6,7,11-hexahydro-3H-2,7-methanopyrido[1,2-a][1,4]diazonine-10-carboxamide]
- CC50 at 5 days [1]: > 50 µM
- EC50 (HIV-1 (IIIB)): 0.0232 µM

SMILES: O=C(NCc1ccc(F)cc1F)c1cn2c(c(O)c1=O)C(=O)N1C[C@@H]2COc2cc(F)c(F)cc21 [Example 92-1, (6R)—N-(2,4-difluorobenzyl)-10,11-difluoro-1-hydroxy-2,14-dioxo-2,6,7,14-tetrahydro-6,13-methanobenzo[b]pyrido[2,1-f][1,4,7]oxadiazonine-3-carboxamide]
- CC50 at 5 days [1]: > 50 µM
- EC50 (HIV-1 (IIIB)): 0.535 µM

SMILES: O=C(NCc1ccc(F)c(Cl)c1F)c1cn2c(c(O)c1=O)C(=O)N1C[C@@H]2CCCc2ccccc21 [Example 97-1, (6S)—N-(3-chloro-2,4-difluorobenzyl)-1-hydroxy-2,15-dioxo-2,6,7,8,9,15-hexahydro-6,14-methanobenzo[e]pyrido[1,2-a][1,4]diazecine-3-carboxamide]
- CC50 at 5 days [1]: 6.06 µM
- EC50 (HIV-1 (IIIB)): 0.00285 µM

SMILES: O=C(NCc1ccc(F)c(Cl)c1F)c1cn2c(c(O)c1=O)C(=O)N1C[C@H]2CCCc2ccccc21 [Example 97-2, (6R)—N-(3-chloro-2,4-difluorobenzyl)-1-hydroxy-2,15-dioxo-2,6,7,8,9,15-hexahydro-6,14-methanobenzo[e]pyrido[1,2-a][1,4]diazecine-3-carboxamide]
- CC50 at 5 days [1]: 16.3 µM
- EC50 (HIV-1 (IIIB)): 0.00605 µM

SMILES: COC1CCCN2C[C@@H]1n1cc(C(=O)NCc3c(F)cc(F)cc3F)c(=O)c(O)c1C2=O (stereo partly drawn) [Example 99-1, (7S)-12-hydroxy-6-methoxy-1,11-dioxo-N-(2,4,6-trifluorobenzyl)-1,4,5,6,7,11-hexahydro-3H-2,7-methanopyrido[1,2-a][1,4]diazonine-10-carboxamide]
- CC50 at 5 days [1]: > 22.2 µM
- EC50 (HIV-1 (IIIB)): 0.00153 µM

SMILES: COC1CCCN2C[C@H]1n1cc(C(=O)NCc3c(F)cc(F)cc3F)c(=O)c(O)c1C2=O (stereo partly drawn) [Example 99-2, (7R)-12-hydroxy-6-methoxy-1,11-dioxo-N-(2,4,6-trifluorobenzyl)-1,4,5,6,7,11-hexahydro-3H-2,7-methanopyrido[1,2-a][1,4]diazonine-10-carboxamide]
- CC50 at 5 days [1]: > 23.4 µM
- EC50 (HIV-1 (IIIB)): 0.00302 µM

SMILES: CO[C@@H]1CCN2C[C@H](C1)n1cc(C(=O)NCc3c(F)cc(F)cc3F)c(=O)c(O)c1C2=O [Example 103-1, (5R,7S)-12-hydroxy-5-methoxy-1,11-dioxo-N-(2,4,6-trifluorobenzyl)-1,4,5,6,7,11-hexahydro-3H-2,7-methanopyrido[1,2-a][1,4]diazonine-10-carboxamide]
- CC50 at 5 days [1]: > 50 µM
- EC50 (HIV-1 (IIIB)): 0.00897 µM

SMILES: CO[C@H]1CCN2C[C@H](C1)n1cc(C(=O)NCc3c(F)cc(F)cc3F)c(=O)c(O)c1C2=O [Example 103-2, (5S,7S)-12-hydroxy-5-methoxy-1,11-dioxo-N-(2,4,6-trifluorobenzyl)-1,4,5,6,7,11-hexahydro-3H-2,7-methanopyrido[1,2-a][1,4]diazonine-10-carboxamide]
- CC50 at 5 days [1]: > 50 µM
- EC50 (HIV-1 (IIIB)): 0.0092 µM

SMILES: CCC1(F)CCCN2CC1n1cc(C(=O)NCc3ccc(F)cc3F)c(=O)c(O)c1C2=O (stereo not shown) [Example 105, N-(2,4-difluorobenzyl)-6-ethyl-6-fluoro-12-hydroxy-1,11-dioxo-1,4,5,6,7,11-hexahydro-3H-2,7-methanopyrido[1,2-a][1,4]diazonine-10-carboxamide]
- CC50 at 5 days [1]: 22.3 µM
- EC50 (HIV-1 (IIIB)): 0.0019 µM
